The values that follow come from PMC9617622 (Journal of medicinal chemistry, 2021).

In one assay the target is human D2L receptor (Homo sapiens, UniProt P14416). The conditions noted are these: for binding affinity at D2R (in words): result in words; for decrease in binding affinity at D2R compared to eticlopride: relative to eticlopride.
Assay [1] deals with T1, D3R (Homo sapiens, UniProt P35462). The conditions noted are these: for binding affinity at D3R (in words) / D2R/D3R preference (in words): result in words; for D2R/D3R preference (in words): D3R v. D2R binding; for Ki difference, O-alkylated v. N-alkylated linker with the same SP: D3R, 48 v. 15 and 49 v. 13; for decrease in binding affinity at D3R compared to eticlopride: relative to eticlopride.

Assay [2] deals with T1, D3R. The conditions noted are these: result in words; compared to full agonist quinpirole and antagonist eticlopride.

T1 sequence (P35462 whole entry): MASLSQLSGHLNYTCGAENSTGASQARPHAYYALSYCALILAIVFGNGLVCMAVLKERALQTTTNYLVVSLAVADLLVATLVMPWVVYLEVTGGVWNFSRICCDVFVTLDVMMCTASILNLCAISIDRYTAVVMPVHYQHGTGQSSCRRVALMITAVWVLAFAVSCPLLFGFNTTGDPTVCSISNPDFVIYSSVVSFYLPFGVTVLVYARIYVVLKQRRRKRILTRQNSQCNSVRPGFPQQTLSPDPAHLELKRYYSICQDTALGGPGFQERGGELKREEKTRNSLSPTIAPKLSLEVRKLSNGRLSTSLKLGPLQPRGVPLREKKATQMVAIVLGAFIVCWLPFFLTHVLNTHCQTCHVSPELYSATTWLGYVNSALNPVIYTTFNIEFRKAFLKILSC
Sequence of human D2L receptor (P14416 whole entry): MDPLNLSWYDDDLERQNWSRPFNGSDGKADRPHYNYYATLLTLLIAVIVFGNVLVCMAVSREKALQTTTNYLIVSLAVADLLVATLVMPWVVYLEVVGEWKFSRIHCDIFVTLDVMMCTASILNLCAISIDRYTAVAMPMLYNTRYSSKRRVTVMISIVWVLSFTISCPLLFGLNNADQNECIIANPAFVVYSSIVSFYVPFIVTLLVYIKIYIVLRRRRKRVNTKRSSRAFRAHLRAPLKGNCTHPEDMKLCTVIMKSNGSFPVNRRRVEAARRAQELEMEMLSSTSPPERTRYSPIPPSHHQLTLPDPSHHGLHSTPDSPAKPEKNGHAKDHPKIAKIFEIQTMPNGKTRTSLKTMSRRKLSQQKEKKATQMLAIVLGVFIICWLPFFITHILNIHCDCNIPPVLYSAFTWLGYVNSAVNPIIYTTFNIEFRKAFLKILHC

With `CCc1cc(Cl)c(OC)c(C(=O)NC[C@@H]2CCCN2Cc2ccccc2)c1OCc1ccccc1` [compound 8, (S)-2-(Benzyloxy)-N-((1-benzylpyrrolidin-2-yl)methyl)-5-chloro-3-ethyl-6-methoxybenzamide], the “binding affinity at D2R (in words)” value at human D2L receptor is given as “low affinity”. Further, the “binding affinity at D3R (in words)” value on D3R [1] is “low affinity”.

Regarding `CCc1cc(Cl)c(OC)c(C(=O)NC[C@@H]2C[C@@H](OCCCCO)CN2)c1O` [compound 51, 3-Chloro-5-ethyl-6-hydroxy-N-(((2S,4R)-4-(4-hydroxybutoxy)pyrrolidin-2-yl)methyl)-2-methoxybenzamide], the “binding affinity at D2R (in words)” value on human D2L receptor is reported as “low nanomolar range”. In addition, the “binding affinity at D3R (in words)” value on D3R [1] was “low nanomolar range”.

Turning to `CCc1cc(Cl)c(OC)c(C(=O)NC[C@@H]2CCCN2CCCCNC(=O)c2cc3ccccc3o2)c1O` [compound 13, (S)-N-(4-(2-((3-Chloro-5-ethyl-6-hydroxy-2-methoxybenzamido)methyl)pyrrolidin-1-yl)butyl) benzofuran-2-carboxamide], the “D2R/D3R preference (in words)” value at D3R [1] is listed as “modest D3R preference was not seen”.

Turning to `CCc1cc(Cl)c(OC)c(C(=O)NC[C@@H]2CCCN2CC)c1O` [eticlopride], the “functional efficacy at D3R (Go BRET activation)” value on D3R [2] is on record as “reference antagonist”.

For the compound `CCc1cc(Cl)c(OC)c(C(=O)NC[C@@H]2CCCN2CCCCOc2ccc3c(c2)NC(=O)CC3)c1O` [compound 11, (S)-3-Chloro-5-ethyl-6-hydroxy-2-methoxy-N-((1-(4-((2-oxo-1,2,3,4-tetrahydroquinolin-7-yl)oxy)butyl)pyrrolidin-2-yl)methyl)benzamide], the “preference for D3R v. D2R” value on D3R [1] (ratio of Ki D2R to Ki D3R) amounted to 3.6 fold.

For the compound `CCc1cc(Cl)c(OC)c(C(=O)NC[C@@H]2C[C@@H](OCCCCNC(=O)c3cc4ccccc4[nH]3)CN2CC)c1O` [compound 48, N-(4-(((3R,5S)-5-((3-Chloro-5-ethyl-6-hydroxy-2-methoxybenzamido)methyl)-1-ethylpyrrolidin-3-yl)oxy)butyl)-1H-indole-2-carboxamide], the “Ki difference, O-alkylated v. N-alkylated linker with the same SP” value at D3R [1] was ~ 56 fold.

With `CCc1cc(Cl)c(OC)c(C(=O)NC[C@@H]2CCCN2Cc2ccccc2)c1O` [compound 7, (S)-N-((1-Benzylpyrrolidin-2-yl)methyl)-3-chloro-5-ethyl-6-hydroxy-2-methoxybenzamide], the “decrease in binding affinity at D2R compared to eticlopride” value (“decrease in binding affinity at D2R” below) on human D2L receptor came to 1800 fold. In addition, on D3R [1], the “decrease in binding affinity at D3R compared to eticlopride” value (shortened to “decrease in binding affinity at D3R”) turned out to be 268 fold.

`CCc1cc(Cl)c(OC)c(C(=O)NC[C@@H]2CCCN2)c1O.Cl` [compound 5, (S)-3-chloro-5-ethyl-6-hydroxy-2-methoxy-N-(pyrrolidin-2-ylmethyl)benzamide hydrochloride, reference compound]: the “decrease in binding affinity at D2R” value on human D2L receptor is recorded as 19 fold. The “decrease in binding affinity at D3R” value on D3R [1] was found to be 4 fold.

`CCc1cc(Cl)c(OC)c(C(=O)NC[C@@H]2CCCN2CCc2c(C)nc3n(c2=O)CCCC3)c1O` [compound 10, (S)-3-Chloro-5-ethyl-6-hydroxy-2-methoxy-N-((1-(2-(2-methyl-4-oxo-6,7,8,9-tetrahydro-4H-pyrido[1,2-a]pyrimidin-3-yl)ethyl)pyrrolidin-2-yl)methyl)benzamide]: at D3R [1], the “D2R/D3R preference (in words)” value was “equiactive at D2R and D3R”.

As for `CCc1cc(Cl)c(OC)c(C(=O)NC[C@@H]2C[C@@H](OCCCc3ccccc3)CN2)c1O` [50a, 3-Chloro-5-ethyl-6-hydroxy-2-methoxy-N-(((2S,4R)-4-(3-phenylpropoxy)pyrrolidin-2-yl)methyl)benzamide], the “binding affinity at D2R (in words)” value at human D2L receptor was “low nanomolar range”. Moreover, on D3R [1], the “binding affinity at D3R (in words)” value is “low nanomolar range”.

Turning to `CCc1cc(Cl)c(OC)c(C(=O)NC[C@@H]2C[C@@H](OCCCCOCc3ccccc3)CN2)c1O` [50b, N-(((2S,4R)-4-(4-(Benzyloxy)butoxy)pyrrolidin-2-yl)methyl)-3-chloro-5-ethyl-6-hydroxy-2-methoxybenzamide], the “binding affinity at D2R (in words)” value on human D2L receptor was “low nanomolar range”. Also, the “binding affinity at D3R (in words)” value at D3R [1] is listed as “low nanomolar range”.

In the case of `CCCN1CCC[C@H]1CNC(=O)c1c(O)c(CC)cc(Cl)c1OC` [compound 6, (S)-3-Chloro-5-ethyl-6-hydroxy-2-methoxy-N-((1-propylpyrrolidin-2-yl)methyl)benzamide], the “decrease in binding affinity at D2R” value at human D2L receptor is reported as 6 fold. Besides, the “decrease in binding affinity at D3R” value on D3R [1] worked out at 2.6 fold.

Regarding `CCc1cc(Cl)c(OC)c(C(=O)NC[C@@H]2C[C@@H](OCCCCNC(=O)c3cc4ccccc4o3)CN2CC)c1O` [compound 49, N-(4-(((3R,5S)-5-((3-chloro-5-ethyl-6-hydroxy-2-methoxybenzamido)methyl)-1-ethylpyrrolidin-3-yl)oxy)butyl)benzofuran-2-carboxamide], at D3R [1], the “Ki difference, O-alkylated v. N-alkylated linker with the same SP” value is listed as ~ 31 fold.
